Data from patent US12171230B2, “Herbicidal compositions” (Bayer Aktiengesellschaft, priority 2018, dated 2024).

Columns and labels:
Format in all cases: in vivo
Panicum maximum = assay: Post-emergence herbicidal action against Panicum maximum; settings: g of a.i./ha: 200, 100, 100 + 200
Method: (§1) When the observed efficacies exceed the formal sum total of the values of the tests with individual applications, they also exceed the expected value according to Colby, which is calculated using the formula below and is likewise regarded as an indication of synergism (cf. S. R. Colby; in Weeds 15 (1967) p. 20 to 22): E^C=A+B−([…])
(§2) Here: • A=efficacy of the active compound (A) in % at an application rate of a g a.i./ha; • B=efficacy of the active compound (B) in % at an application rate of b g a.i./ha; • E^C=expected value of the effect of the combination (A)+(B) in % at the combined application rate a+b g a.i./ha.
(§3) Seeds or rhizome pieces of mono- and dicotyledonous weeds are placed in sandy loam in pots, covered with soil and grown in a greenhouse under good growth conditions (temperature, air humidity, water supply). Three weeks after sowing, the test plants were treated at the three-leaf stage with the compositions according to the invention. The compositions according to the invention formulated as spray powders or as emulsion concentrates were sprayed onto the green plant parts in various dosages with an application rate of 300 to 800 l/ha of water (equivalent). After the test plants have been left to stand in the greenhouse under optimal growth conditions for about 3 to 4 weeks, the action of the preparations is scored visually in comparison to untreated controls. The compositions according to the invention also have good post-emergence herbicidal activity against a broad spectrum of economically important gramineous and broadleaf weeds.

Lamium purpureum = assay: Post-emergence herbicidal action against Lamium purpureum
In short: (§4)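 Pot-grown plants, three weeks old at the three-leaf stage, received foliar sprays of various dosages. Visual assessment relative to untreated plants followed 3 to 4 weeks later.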

Amaranthus palmeri = assay: Post-emergence herbicidal action against Amaranthus palmeri; settings: 21 DAT; 30 g of a.i./ha
In short: as §4

Bidens pilosa = assay: Post-emergence herbicidal action against Bidens pilosa; settings: for Herbicidal action against Bidens pilosa: 21 DAT
In short: as §4

Setaria viridis = assay: Post-emergence herbicidal action against Setaria viridis; settings: 21 DAT
In short: as §4

Sorghum halepense = assay: Post-emergence herbicidal action against Sorghum halepense
In short: as §4

Digitaria sanguinalis = assay: Post-emergence herbicidal action against Digitaria sanguinalis; settings: (Z61) post-emergence; g of a.i./ha: 180, 100, 100 + 180
In short: as §4

Poa annua = assay: Post-emergence herbicidal action against Poa annua
In short: as §4

Chenopodium album = assay: Post-emergence herbicidal action against Chenopodium album; settings: g of a.i./ha: 180, 100, 100 + 180
Method: as §1, §2, §3

Echinochloa crus-galli = assay: Post-emergence herbicidal action against Echinochloa crus-galli; settings: 21 DAT; 30 g of a.i./ha
In short: as §4

[1] = system: Lolium rigidum (resistant biotype); assay: Post-emergence herbicidal action against Lolium rigidum (resistant biotype)
In short: (§5)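 Colby-derived expected values (E^C) and the summed effects of the separate applications (E^A) accompany each rating. Active substance was dosed in grams per hectare on a 100% active-compound basis, with the rating period given as DAT.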

Phalaris minor = assay: Post-emergence herbicidal action against Phalaris minor
In short: as §5

Kochia scoparia = assay: Post-emergence herbicidal action against Kochia scoparia; settings: g of a.i./ha by row: 30, 5, 5 + 30
Description: (§6) The following abbreviations are used in the description and the tables that follow: • g of a.i./ha=grams of active substance (active ingredient) (=100% active compound) per hectare; • The sum total of the effects of the individual applications is reported under E^A; • expected values according to Colby are each reported under E^C.
(§7) The rating period is reported in days after application (DAT).

Alopecurus myosuroides = assay: Post-emergence herbicidal action against Alopecurus myosuroides
In short: as §5

Bromus sterilis = assay: Post-emergence herbicidal action against Bromus sterilis
In short: as §5

Veronica hederifolia = assay: Post-emergence herbicidal action against Veronica hederifolia; settings: g of a.i./ha: 16, 270, 16 + 270
Description: as §6, §7

Brachiaria decumbens = assay: Post-emergence herbicidal action against Brachiaria decumbens; settings: g of a.i./ha: 200, 100, 100 + 200
Description: as §6, §7

Abutilon theophrasti = assay: Post-emergence herbicidal action against Abutilon theophrasti; settings: g of a.i./ha: 90, 30, 15, 15 + 90, 15 + 30
In short: as §5

[2] = (Z61) post-emergence, g of a.i./ha by row: 4, 1, 270, 90, 4 + 270, 1 + 270, 1 + 90, 90 g of a.i./ha
[3] = (Z61) post-emergence, g of a.i./ha by row: 4, 1, 270, 90, 4 + 270, 1 + 270, 1 + 90, 270 g of a.i./ha
[4] = (Z119) post-emergence, g of a.i./ha: 1, 270, 1 + 270

O=C(Nc1ccc(F)cc1F)c1cccnc1Oc1cccc(C(F)(F)F)c1 [(B2.18) Diflufenican]
25%: Herbicidal action 21 DAT against Kochia scoparia (Kochia scoparia)
15%: Herbicidal action against Setaria viridis (Setaria viridis; 270 g of a.i./ha) | Herbicidal action 28 DAT against Alopecurus myosuroides (Alopecurus myosuroides; (Z61) post-emergence, g of a.i./ha by row: 16, 4, 1, 270, 90, 16 + 270, 4 + 270, 4 + 90, 1 + 270, 1 + 90, 90 g of a.i./ha) | Herbicidal action 14 DAT against Alopecurus myosuroides (Alopecurus myosuroides; (Z61) post-emergence, g of a.i./ha: 4, 1, 270, 90, 4 + 270, 4 + 90, 1 + 270, 1 + 90, 90 g of a.i./ha) | Herbicidal action 14 DAT against Bromus sterilis (Bromus sterilis; [3]) | Herbicidal action 28 DAT against Bromus sterilis (Bromus sterilis; (Z61) post-emergence, g of a.i./ha: 1, 270, 90, 1 + 270, 1 + 90, 90 g of a.i./ha)
20%: Herbicidal action 14 DAT against Lamium purpureum L. (Lamium purpureum; 30 g of a.i./ha) | Herbicidal action 28 DAT against Lamium purpureum L. (Lamium purpureum; 90 g of a.i./ha) | Herbicidal action 28 DAT against Lamium purpureum L. (Lamium purpureum; (Z61) post-emergence, g of a.i./ha by row: 4, 1, 270, 30, 90, 4 + 270, 4 + 30, 1 + 270, 1 + 90, 1 + 30) | Herbicidal action 14 DAT against Lamium purpureum L. (Lamium purpureum; (Z119) post-emergence, g of a.i./ha by row: 16, 30, 16 + 30) | Herbicidal action 14 DAT against Poa annua L. (Poa annua; (Z61) post-emergence, g of a.i./ha: 16, 1, 270, 90, 16 + 270, 16 + 90, 1 + 270, 1 + 90) | Herbicidal action 27 DAT against Chenopodium album (Chenopodium album) | Herbicidal action 28 DAT against Lolium rigidum (resistant biotype) ([1]; (Z61) post-emergence, g of a.i./ha: 4, 1, 270, 90, 4 + 270, 1 + 90, 270 g of a.i./ha) | Herbicidal action 28 DAT against Alopecurus myosuroides (Alopecurus myosuroides; (Z61) post-emergence, g of a.i./ha by row: 16, 4, 1, 270, 90, 16 + 270, 4 + 270, 4 + 90, 1 + 270, 1 + 90, 270 g of a.i./ha) | Herbicidal action 14 DAT against Alopecurus myosuroides (Alopecurus myosuroides; (Z61) post-emergence, g of a.i./ha: 4, 1, 270, 90, 4 + 270, 4 + 90, 1 + 270, 1 + 90, 270 g of a.i./ha) | Herbicidal action 28 DAT against Bromus sterilis (Bromus sterilis; (Z61) post-emergence, g of a.i./ha: 1, 270, 90, 1 + 270, 1 + 90, 270 g of a.i./ha)
85%: Herbicidal action 14 DAT against Veronica hederifolia (Veronica hederifolia)
5%: Herbicidal action 14 DAT against Lolium rigidum (resistant biotype) ([1]; (Z119) post-emergence, g of a.i./ha by row: 16, 1, 90, 30, 270, 16 + 90, 16 + 30, 1 + 270, 90 g of a.i./ha) | Herbicidal action 28 DAT against Phalaris minor (Phalaris minor; 270 g of a.i./ha) | Herbicidal action 28 DAT against Phalaris minor (Phalaris minor; (Z119) post-emergence, g of a.i./ha: 16, 4, 270, 90, 30, 16 + 270, 16 + 90, 16 + 30, 4 + 270, 4 + 30, 270 g of a.i./ha) | Herbicidal action 14 DAT against Phalaris minor (Phalaris minor; (Z119) post-emergence, g of a.i./ha: 16, 4, 270, 90, 270, 16 + 270, 16 + 90, 4 + 270) | Herbicidal action 14 DAT against Bromus sterilis (Bromus sterilis; (Z119) post-emergence, g of a.i./ha: 1, 270, 90, 1 + 270, 1 + 90) | Herbicidal action 14 DAT against Bromus sterilis (Bromus sterilis; (Z148) post-emergence, g of a.i./ha: 4, 1, 270, 90, 30, 4 + 270, 4 + 90, 4 + 30, 1 + 30, 270 g of a.i./ha)
45%: Herbicidal action against Bidens pilosa (Bidens pilosa; 270 g of a.i./ha)
40%: Herbicidal action against Amaranthus palmeri (res.) (Amaranthus palmeri)
0%: Herbicidal action 28 DAT against Panicum maximum (Panicum maximum) | Herbicidal action 37 DAT against Digitaria sanguinalis (Digitaria sanguinalis) | Herbicidal action 28 DAT against Poa annua L. (Poa annua; 30 g of a.i./ha) | Herbicidal action 28 DAT against Poa annua L. (Poa annua; 90 g of a.i./ha) | Herbicidal action 28 DAT against Poa annua L. (Poa annua; 270 g of a.i./ha) | Herbicidal action 28 DAT against Poa annua L. (Poa annua; (Z119) post-emergence, g of a.i./ha: 16, 1, 270, 90, 30, 16 + 270, 16 + 90, 16 + 30, 1 + 270) | Herbicidal action 28 DAT against Lolium rigidum (resistant biotype) ([1]; 30 g of a.i./ha) | Herbicidal action 28 DAT against Lolium rigidum (resistant biotype) ([1]; 90 g of a.i./ha) | Herbicidal action 28 DAT against Lolium rigidum (resistant biotype) ([1]; 270 g of a.i./ha) | Herbicidal action 14 DAT against Lolium rigidum (resistant biotype) [1, 2] | Herbicidal action 14 DAT against Lolium rigidum (resistant biotype) ([1]; (Z119) post-emergence, g of a.i./ha by row: 16, 1, 90, 30, 270, 16 + 90, 16 + 30, 1 + 270, 30 g of a.i./ha) | Herbicidal action 28 DAT against Lolium rigidum (resistant biotype) [1, 4] | Herbicidal action 28 DAT against Phalaris minor (Phalaris minor; 30 g of a.i./ha) | Herbicidal action 28 DAT against Phalaris minor (Phalaris minor; 90 g of a.i./ha) | Herbicidal action 28 DAT against Phalaris minor (Phalaris minor; (Z119) post-emergence, g of a.i./ha: 16, 4, 270, 90, 30, 16 + 270, 16 + 90, 16 + 30, 4 + 270, 4 + 30, 90 g of a.i./ha) | Herbicidal action 28 DAT against Alopecurus myosuroides (Alopecurus myosuroides; (Z119) post-emergence, g of a.i./ha by row: 16, 1, 270, 90, 30, 16 + 270, 16 + 90, 16 + 30, 1 + 270, 1 + 90) | Herbicidal action 28 DAT against Bromus sterilis (Bromus sterilis; [4]) | Herbicidal action 28 DAT against Bromus sterilis (Bromus sterilis; (Z148) post-emergence, g of a.i./ha: 1, 270, 90, 30, 1 + 270, 1 + 90, 1 + 30) | Herbicidal action 14 DAT against Bromus sterilis (Bromus sterilis; (Z148) post-emergence, g of a.i./ha: 4, 1, 270, 90, 30, 4 + 270, 4 + 90, 4 + 30, 1 + 30, 30 g of a.i./ha) | Herbicidal action 28 DAT against Brachiaria decumbens (Brachiaria decumbens)
35%: Herbicidal action against Bidens pilosa (Bidens pilosa; 90 g of a.i./ha)
10%: Herbicidal action 28 DAT against Lamium purpureum L. (Lamium purpureum; 30 g of a.i./ha) | Herbicidal action 21 DAT against Bidens pilosa (Bidens pilosa; post-emergence, g of a.i./ha: 90, 30, 15, 15 + 90, 15 + 30) | Herbicidal action against Setaria viridis (Setaria viridis; 30 g of a.i./ha) | Herbicidal action against Setaria viridis (Setaria viridis; 90 g of a.i./ha) | Herbicidal action against Sorghum halepense (Sorghum halepense; 21 DAT, 30 g of a.i./ha) | Herbicidal action 21 DAT against Sorghum halepense (Sorghum halepense; (Z3) post-emergence, g of a.i./ha: 90, 30, 15, 5, 15 + 90, 5 + 90, 15 + 30, 5 + 30) | Herbicidal action against Echinochloa crus-galli (Echinochloa crus-galli) | Herbicidal action 14 DAT against Lolium rigidum (resistant biotype) [1, 3] | Herbicidal action 28 DAT against Lolium rigidum (resistant biotype) ([1]; (Z61) post-emergence, g of a.i./ha: 4, 1, 270, 90, 4 + 270, 1 + 90, 90 g of a.i./ha) | Herbicidal action 14 DAT against Alopecurus myosuroides (Alopecurus myosuroides; (Z119) post-emergence, g of a.i./ha: 16, 1, 270, 16 + 270, 1 + 270) | Herbicidal action 14 DAT against Bromus sterilis (Bromus sterilis; [2]) | Herbicidal action 21 DAT against Abutilon theophrasti (Abutilon theophrasti)
